What all share (assay): Kinase panel study
What all share (assay type): biochemical

Assay [1] concerns the target T1, PIK3CB/PIK3R2 (p11 0 beta/p85 beta) (Homo sapiens, UniProt P42338).
T1 construct: purchased Thermo Fisher Scientific
In short, it runs like this:
(§1)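 In vitro, kinase panel; ZLyte or Adapta SOP; single-concentration testing (1 or 10 µM); output = % inhibition, plus IC50 in panel.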

Assay [2] concerns the target T2, PIK3CG (p11 0 gamma) (Homo sapiens, UniProt P48736).
T2 construct: purchased Thermo Fisher Scientific
The procedure, abridged: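 ZLyte/Adapta biochemical kinase assays, standard operating procedures; % inhibition at 1 µM or 10 µM test compound; IC50 determined in panel.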

Assay [3] addresses T3, MINK1 (Homo sapiens, UniProt Q8N4C8).
T3 construct: purchased Thermo Fisher Scientific
The procedure, abridged: as §1

Assay [4] has as its target T4, AKT1 (PKB alpha) (Homo sapiens, UniProt P31749).
T4 construct: purchased Thermo Fisher Scientific
In short, it runs like this:
as §1

Assay [5] addresses T5, PIK3C2A (PI3K-C2 alpha) (Homo sapiens, UniProt O00443).
T5 construct: purchased Thermo Fisher Scientific
In short, it runs like this: as §1

Assay [6] deals with T6, PIK3CA/PIK3R1 (p11 0 alpha/p85 alpha) (Homo sapiens, UniProt P42336).
T6 construct: purchased Thermo Fisher Scientific
In short, it runs like this:
as §1

For assay [7], the target named is T7, BTK (Homo sapiens, UniProt Q06187).
T7 construct: purchased Thermo Fisher Scientific
The procedure, abridged:
as §1

The target of assay [8] is T8, PIK3CD/PIK3R1 (p11 0 delta/p85 alpha) (Homo sapiens, UniProt O00329).
T8 construct: purchased Thermo Fisher Scientific
T8 sequence (O00329 whole entry): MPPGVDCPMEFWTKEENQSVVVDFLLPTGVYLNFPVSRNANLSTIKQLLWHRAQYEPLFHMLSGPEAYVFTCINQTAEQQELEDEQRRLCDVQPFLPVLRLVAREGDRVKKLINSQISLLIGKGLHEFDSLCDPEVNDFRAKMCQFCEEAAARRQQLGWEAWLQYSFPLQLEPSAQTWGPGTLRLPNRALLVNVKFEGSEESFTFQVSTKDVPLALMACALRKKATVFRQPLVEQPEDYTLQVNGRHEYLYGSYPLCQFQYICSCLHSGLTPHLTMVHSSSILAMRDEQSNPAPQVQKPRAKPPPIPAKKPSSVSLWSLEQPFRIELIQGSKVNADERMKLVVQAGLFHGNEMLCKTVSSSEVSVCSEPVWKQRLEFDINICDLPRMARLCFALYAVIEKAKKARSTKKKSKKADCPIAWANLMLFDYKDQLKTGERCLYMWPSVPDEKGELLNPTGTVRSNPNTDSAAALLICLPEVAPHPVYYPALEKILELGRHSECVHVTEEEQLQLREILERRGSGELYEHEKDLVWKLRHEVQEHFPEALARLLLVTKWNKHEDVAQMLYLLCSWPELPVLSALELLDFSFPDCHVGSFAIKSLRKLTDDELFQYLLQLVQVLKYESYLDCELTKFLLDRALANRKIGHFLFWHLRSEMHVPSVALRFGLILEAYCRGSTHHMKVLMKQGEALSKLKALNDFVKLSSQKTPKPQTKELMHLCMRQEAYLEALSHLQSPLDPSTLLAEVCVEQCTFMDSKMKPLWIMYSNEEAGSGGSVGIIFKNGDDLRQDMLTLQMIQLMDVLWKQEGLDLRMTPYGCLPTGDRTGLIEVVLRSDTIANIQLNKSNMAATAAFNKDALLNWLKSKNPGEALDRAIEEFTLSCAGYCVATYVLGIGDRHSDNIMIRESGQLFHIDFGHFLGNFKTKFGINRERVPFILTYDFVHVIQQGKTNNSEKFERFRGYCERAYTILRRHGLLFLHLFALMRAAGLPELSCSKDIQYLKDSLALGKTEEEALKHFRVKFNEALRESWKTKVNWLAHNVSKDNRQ
T8 sequence (P27986 whole entry partner): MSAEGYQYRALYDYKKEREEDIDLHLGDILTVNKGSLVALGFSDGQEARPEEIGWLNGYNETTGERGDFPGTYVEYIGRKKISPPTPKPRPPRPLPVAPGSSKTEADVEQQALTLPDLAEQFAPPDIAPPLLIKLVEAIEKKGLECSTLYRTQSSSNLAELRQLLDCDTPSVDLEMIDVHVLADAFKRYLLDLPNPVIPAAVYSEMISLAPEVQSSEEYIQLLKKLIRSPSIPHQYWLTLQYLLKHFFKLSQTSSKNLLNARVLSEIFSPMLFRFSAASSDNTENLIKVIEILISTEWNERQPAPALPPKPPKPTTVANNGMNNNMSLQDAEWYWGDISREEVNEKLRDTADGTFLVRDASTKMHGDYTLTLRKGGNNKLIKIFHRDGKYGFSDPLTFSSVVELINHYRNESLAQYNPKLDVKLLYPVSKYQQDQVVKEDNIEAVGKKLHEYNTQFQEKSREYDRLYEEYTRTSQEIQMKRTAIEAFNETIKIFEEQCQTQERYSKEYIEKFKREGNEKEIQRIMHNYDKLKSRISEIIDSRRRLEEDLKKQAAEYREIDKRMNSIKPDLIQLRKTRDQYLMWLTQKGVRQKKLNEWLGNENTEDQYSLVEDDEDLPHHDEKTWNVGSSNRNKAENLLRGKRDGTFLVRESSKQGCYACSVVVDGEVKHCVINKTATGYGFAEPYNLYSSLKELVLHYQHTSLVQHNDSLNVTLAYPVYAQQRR
The procedure, abridged:
as §1

Assay [9] concerns the target T9, PIP5K1C (Homo sapiens, UniProt O60331).
T9 construct: purchased Thermo Fisher Scientific
The procedure, abridged: as §1

The target of assay [10] is T10, PI4K2B (PI4K2 beta) (Homo sapiens, UniProt Q8TCG2).
T10 construct: purchased Thermo Fisher Scientific
The procedure, abridged:
as §1

In assay [11] the target is T11, CSF1R (FMS) (Homo sapiens, UniProt P07333).
T11 construct: purchased Thermo Fisher Scientific
The procedure, abridged:
as §1

Assay [12] has as its target T12, PIP5K1A (Homo sapiens, UniProt Q99755).
T12 construct: purchased Thermo Fisher Scientific
In short, it runs like this:
as §1

Assay [13] addresses T13, FLT3 (Homo sapiens, UniProt P36888).
T13 construct: purchased Thermo Fisher Scientific
T13 sequence (P36888 27-993): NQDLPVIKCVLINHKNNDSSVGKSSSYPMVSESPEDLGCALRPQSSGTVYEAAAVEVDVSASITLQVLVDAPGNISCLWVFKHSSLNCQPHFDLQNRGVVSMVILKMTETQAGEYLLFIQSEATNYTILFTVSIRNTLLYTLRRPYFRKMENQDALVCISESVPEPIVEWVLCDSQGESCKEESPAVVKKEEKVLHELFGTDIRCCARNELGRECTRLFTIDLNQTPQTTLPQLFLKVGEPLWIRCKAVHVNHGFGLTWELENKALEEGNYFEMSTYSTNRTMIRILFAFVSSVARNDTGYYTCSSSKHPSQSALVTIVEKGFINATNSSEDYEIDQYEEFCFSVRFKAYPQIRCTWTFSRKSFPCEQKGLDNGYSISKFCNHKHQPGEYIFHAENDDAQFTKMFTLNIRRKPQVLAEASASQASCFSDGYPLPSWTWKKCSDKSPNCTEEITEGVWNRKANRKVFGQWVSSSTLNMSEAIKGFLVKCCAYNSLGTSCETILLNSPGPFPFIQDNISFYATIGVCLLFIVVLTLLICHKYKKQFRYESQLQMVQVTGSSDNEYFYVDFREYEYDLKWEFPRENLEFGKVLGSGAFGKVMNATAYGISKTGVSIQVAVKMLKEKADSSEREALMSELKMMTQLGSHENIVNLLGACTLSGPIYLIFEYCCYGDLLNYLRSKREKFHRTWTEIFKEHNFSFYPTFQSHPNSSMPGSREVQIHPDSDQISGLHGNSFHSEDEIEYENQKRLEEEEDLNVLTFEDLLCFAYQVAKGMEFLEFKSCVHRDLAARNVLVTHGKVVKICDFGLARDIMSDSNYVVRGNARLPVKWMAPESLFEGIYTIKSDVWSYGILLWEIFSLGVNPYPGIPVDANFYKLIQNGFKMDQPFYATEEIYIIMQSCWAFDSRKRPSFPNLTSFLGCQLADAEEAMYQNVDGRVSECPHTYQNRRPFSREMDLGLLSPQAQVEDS
The procedure, abridged: as §1

Assay [14] concerns the target T14, PI4K2A (PI4K2 alpha) (Homo sapiens, UniProt Q9BTU6).
T14 construct: purchased Thermo Fisher Scientific
In short, it runs like this: as §1

The mark [15] stands for this setting: 1000nM, read-out: Percentage of inhibition.
Setting [16] is: 10000nM, read-out: Percentage of inhibition.
The mark [17] stands for this setting: PIK3CB/PIK3R2, compound at 10µM, read-out: % of Inhibition.
The mark [18] stands for this setting: PIK3CG, compound at 10µM, read-out: % of Inhibition.
Setting [19] is: MINK1, compound at 10µM, read-out: % of Inhibition.
Setting [20] is: AKT1 (PKB alpha), compound at 10µM, read-out: % of Inhibition.
The mark [21] stands for this setting: PIK3C2A (PI3K-C2 alpha), compound at 10µM, read-out: % of Inhibition.
The mark [22] stands for this setting: PIK3CA/PIK3R1, compound at 10µM, read-out: % of Inhibition.
The mark [23] stands for this setting: BTK, compound at 10µM, read-out: % of Inhibition.
[24] abbreviates: PIK3CD/PIK3R1, compound at 10µM, read-out: % of Inhibition.
Where [25] appears, read: PIP5K1C, compound at 10µM, read-out: % of Inhibition.
Setting [26] is: PI4K2B (PI4K2 beta), compound at 10µM, read-out: % of Inhibition.
Where [27] appears, read: CSF1R (FMS), compound at 10µM, read-out: % of Inhibition.
Where [28] appears, read: PIP5K1A, compound at 10µM, read-out: % of Inhibition.
Where [29] appears, read: FLT3, compound at 10µM, read-out: % of Inhibition.
Setting [30] is: PI4K2A (PI4K2 alpha), compound at 10µM, read-out: % of Inhibition.

Read-outs that look alike come from different tables or passages of the source.

T1 sequence (P42338 whole entry): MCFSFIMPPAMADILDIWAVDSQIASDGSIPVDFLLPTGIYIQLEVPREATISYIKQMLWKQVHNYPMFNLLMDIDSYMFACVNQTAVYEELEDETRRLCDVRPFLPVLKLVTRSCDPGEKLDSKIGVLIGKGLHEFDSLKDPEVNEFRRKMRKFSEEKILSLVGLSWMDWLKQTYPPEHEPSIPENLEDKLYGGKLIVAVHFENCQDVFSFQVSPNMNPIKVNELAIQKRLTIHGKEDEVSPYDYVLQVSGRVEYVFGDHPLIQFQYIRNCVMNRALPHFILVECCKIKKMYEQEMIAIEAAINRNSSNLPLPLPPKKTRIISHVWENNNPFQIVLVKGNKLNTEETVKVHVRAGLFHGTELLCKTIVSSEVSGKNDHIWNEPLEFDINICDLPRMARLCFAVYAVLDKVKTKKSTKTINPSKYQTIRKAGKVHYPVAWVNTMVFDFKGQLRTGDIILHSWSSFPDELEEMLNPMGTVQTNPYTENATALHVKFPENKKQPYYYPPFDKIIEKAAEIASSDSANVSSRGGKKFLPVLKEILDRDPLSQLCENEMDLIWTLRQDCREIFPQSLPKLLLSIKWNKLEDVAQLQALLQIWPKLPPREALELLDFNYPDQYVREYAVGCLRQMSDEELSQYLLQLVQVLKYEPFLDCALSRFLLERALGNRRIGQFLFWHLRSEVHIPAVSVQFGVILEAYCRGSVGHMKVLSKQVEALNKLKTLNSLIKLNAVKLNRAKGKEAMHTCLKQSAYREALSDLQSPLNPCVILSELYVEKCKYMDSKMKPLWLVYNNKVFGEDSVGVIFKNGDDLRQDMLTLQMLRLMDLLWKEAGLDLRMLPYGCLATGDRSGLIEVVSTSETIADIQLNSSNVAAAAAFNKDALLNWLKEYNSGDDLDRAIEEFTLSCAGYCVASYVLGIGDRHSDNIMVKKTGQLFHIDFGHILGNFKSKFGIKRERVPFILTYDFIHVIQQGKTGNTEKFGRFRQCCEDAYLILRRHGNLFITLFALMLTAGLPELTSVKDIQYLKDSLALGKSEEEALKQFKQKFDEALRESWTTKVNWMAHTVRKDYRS
T1 sequence (O00459 whole entry partner): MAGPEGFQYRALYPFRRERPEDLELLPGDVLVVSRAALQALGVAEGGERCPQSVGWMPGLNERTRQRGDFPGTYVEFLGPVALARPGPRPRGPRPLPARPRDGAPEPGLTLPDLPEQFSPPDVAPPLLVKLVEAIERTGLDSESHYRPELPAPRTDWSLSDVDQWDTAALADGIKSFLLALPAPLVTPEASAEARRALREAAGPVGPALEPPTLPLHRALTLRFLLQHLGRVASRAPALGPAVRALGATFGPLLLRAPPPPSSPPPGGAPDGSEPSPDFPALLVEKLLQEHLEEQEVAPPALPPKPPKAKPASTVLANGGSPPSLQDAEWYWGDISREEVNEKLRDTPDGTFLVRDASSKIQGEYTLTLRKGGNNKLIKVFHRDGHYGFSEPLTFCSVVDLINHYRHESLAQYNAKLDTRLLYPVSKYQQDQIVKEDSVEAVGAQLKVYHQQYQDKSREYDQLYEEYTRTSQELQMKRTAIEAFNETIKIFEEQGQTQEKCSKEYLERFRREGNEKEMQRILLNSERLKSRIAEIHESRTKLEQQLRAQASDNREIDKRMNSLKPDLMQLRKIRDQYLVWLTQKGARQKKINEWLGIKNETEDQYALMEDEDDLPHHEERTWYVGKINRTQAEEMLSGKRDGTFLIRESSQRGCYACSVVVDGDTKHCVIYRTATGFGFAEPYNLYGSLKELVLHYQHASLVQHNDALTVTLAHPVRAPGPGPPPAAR
T3 sequence (Q8N4C8 whole entry): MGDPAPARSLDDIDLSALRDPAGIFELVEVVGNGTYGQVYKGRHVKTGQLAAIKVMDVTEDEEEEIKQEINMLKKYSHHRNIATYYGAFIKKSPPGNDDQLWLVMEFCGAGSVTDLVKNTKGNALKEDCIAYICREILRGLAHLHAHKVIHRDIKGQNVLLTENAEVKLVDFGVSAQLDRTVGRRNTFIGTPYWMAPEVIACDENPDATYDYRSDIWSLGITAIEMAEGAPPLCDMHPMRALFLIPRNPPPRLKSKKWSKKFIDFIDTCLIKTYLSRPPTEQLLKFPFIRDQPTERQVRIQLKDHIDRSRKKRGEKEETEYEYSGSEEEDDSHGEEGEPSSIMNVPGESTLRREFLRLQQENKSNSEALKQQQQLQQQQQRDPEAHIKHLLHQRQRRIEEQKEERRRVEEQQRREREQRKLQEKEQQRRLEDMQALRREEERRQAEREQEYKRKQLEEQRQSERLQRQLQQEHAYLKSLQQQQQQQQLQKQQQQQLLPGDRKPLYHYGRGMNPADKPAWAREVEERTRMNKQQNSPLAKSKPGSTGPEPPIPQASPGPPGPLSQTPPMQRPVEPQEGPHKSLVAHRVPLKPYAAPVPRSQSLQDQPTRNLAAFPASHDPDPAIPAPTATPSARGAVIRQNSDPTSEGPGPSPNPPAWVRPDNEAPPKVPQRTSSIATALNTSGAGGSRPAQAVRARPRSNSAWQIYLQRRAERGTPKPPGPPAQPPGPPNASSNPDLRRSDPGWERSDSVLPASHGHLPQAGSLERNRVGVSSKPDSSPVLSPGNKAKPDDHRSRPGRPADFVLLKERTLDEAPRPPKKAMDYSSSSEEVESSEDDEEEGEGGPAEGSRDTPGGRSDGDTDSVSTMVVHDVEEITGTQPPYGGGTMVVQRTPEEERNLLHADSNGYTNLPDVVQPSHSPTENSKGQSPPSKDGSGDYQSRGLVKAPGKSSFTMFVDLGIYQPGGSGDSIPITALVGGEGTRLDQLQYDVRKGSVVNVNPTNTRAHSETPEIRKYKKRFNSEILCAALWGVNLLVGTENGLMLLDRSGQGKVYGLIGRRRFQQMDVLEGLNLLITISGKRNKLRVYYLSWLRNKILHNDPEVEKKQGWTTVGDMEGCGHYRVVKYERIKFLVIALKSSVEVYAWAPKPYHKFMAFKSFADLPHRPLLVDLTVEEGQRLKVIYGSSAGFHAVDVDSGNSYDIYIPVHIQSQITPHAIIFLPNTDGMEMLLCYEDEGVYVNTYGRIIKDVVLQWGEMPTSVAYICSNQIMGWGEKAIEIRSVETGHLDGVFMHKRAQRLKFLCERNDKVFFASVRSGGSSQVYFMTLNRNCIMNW

For the compound `COc1ccc2c(c1OC)c(=O)n1c3ccc(O)cc3c3ccnc2c31` [MW01, 5-Hydroxy-10,11-dimethoxy-9H-benzo[c]indolo[3,2,1-ij][1,5]naphthyridin-9-one], the inhibition (usually the change of the read-out against control, counted positive when it falls) at 1 µM in assay [1] (setting [15]) was determined as 24%; in assay [2] (setting [15]), 81%; in [3] (setting [15]) it was 60%; in [4] (setting [15]), 5%; in [5] (setting [15]) it was 26%; in assay [6] (setting [15]), 81%. The inhibition at 1 µM was 11% in assay [7] (setting [15]); 79% in [8] (setting [15]); 54% in [9] (setting [15]); 3% in [10] (setting [15]); 36% in [11] (setting [15]); 25% in assay [12] (setting [15]). For the same compound, the inhibition at 1 µM in assay [13] (setting [15]) amounted to 61%; in assay [14] (setting [15]) it was 7%. In addition, the inhibition at 10 µM in [1] (setting [16]) is 66%; in [2] (setting [16]), 88%; in [3] (setting [16]), 73%; in [4] (setting [16]) it was 10%; in [5] (setting [16]), 43%; in assay [6] (setting [16]), 86%. Further, the inhibition at 10 µM in assay [7] (setting [16]) is 23%; in [8] (setting [16]), 89%; in assay [9] (setting [16]), 69%; in assay [10] (setting [16]) it was 20%; in assay [11] (setting [16]), 51%; in assay [12] (setting [16]) it was 43%. For the same compound, the inhibition at 10 µM in assay [13] (setting [16]) worked out at 86%; in assay [14] (setting [16]), 25%. Further, the half-inhibitory concentration (IC50) (as a rule, the concentration that inhibits the measured activity by half) in [2] (in vitro kinase panel, criterion of at most 2000 nM) was ≤ 2000 nM.
Take `COc1ccc2c(c1)c1ccnc3c4nc(OC)ccc4c(=O)n2c13` [MW01-E6, 5,15-dimethoxy-1,11,14-triazapentacyclo[10.7.1,0^2,7.0^8,^20.0^13,^18]icosa-2(7),3,5,8(20),9,11,13(18),14,16-nonaen-19-one]: the inhibition at 10 µM in assay [1] (setting [17]) is 12%; in [2] (setting [18]), -1%; in assay [3] (setting [19]), 57%; in assay [4] (setting [20]) it was 6%; in assay [5] (setting [21]) it was 26%; in assay [6] (setting [22]), 38%. Further, the inhibition at 10 µM in [7] (setting [23]) turned out to be 30%; in assay [8] (setting [24]) it was 34%; in assay [9] (setting [25]) it was 14%; in [10] (setting [26]) it was 11%; in [11] (setting [27]) it was 33%; in assay [12] (setting [28]) it was 20%. In addition, the inhibition at 10 µM turned out to be 31% in [13] (setting [29]) and 22% in assay [14] (setting [30]).
`O=c1c2cc(O)ccc2c2nccc3c4cc(O)ccc4n1c32` [MW01-E10, 5,16-dihydroxy-1,11-diazapentacyclo[10.7.1.0^2,^7.0^8,^20.0^13,^18]icosa-2(7),3,5,8(20),9,11,13(18),14,16-nonaen-19-one]: the inhibition at 10 µM is 35% in assay [1] (setting [17]); 93% in [2] (setting [18]); 92% in assay [3] (setting [19]); 18% in [4] (setting [20]); 31% in assay [5] (setting [21]); 90% in assay [6] (setting [22]). Moreover, the inhibition at 10 µM in [7] (setting [23]) is 69%; in assay [8] (setting [24]), 87%; in [9] (setting [25]) it was 33%; in assay [10] (setting [26]) it was 22%; in assay [11] (setting [27]), 61%; in assay [12] (setting [28]) it was 5%. Also, the inhibition at 10 µM in assay [13] (setting [29]) came out at 27%; in [14] (setting [30]), 13%.

(Values after EP4467141A1, “PYRAZOLO-QUINOLINES AS SELECTIVE INHIBITORS OF GENOTOXIC STRESS-INDUCED IKK/NF- KB PATHWAYS FOR CANCER THERAPY” (Max-Delbrück-Centrum für Molekulare Medizin in der …, priority 2023, dated 2024).)
